Active and inactive are the calls of the source.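 The calls were made as follows: active = more than half of replicate measurements showing over 20% loss of kinase signal relative to plate controls; inconclusive = some but at most half of replicates over 20% loss; inactive = no replicate over 20% signal loss.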
biological target: Glycogen synthase kinase-3 alpha (Homo sapiens) (UniProt P49840); assay: concentration-response blocking of human GSK3A – biochemical, luminescence, cell-free homogeneous, retest, dose response (AID 463203); conditions: GSK-3 alpha enzyme, ADP-Glo luminescence, 60 min
Sequence (P49840 whole entry, looked up): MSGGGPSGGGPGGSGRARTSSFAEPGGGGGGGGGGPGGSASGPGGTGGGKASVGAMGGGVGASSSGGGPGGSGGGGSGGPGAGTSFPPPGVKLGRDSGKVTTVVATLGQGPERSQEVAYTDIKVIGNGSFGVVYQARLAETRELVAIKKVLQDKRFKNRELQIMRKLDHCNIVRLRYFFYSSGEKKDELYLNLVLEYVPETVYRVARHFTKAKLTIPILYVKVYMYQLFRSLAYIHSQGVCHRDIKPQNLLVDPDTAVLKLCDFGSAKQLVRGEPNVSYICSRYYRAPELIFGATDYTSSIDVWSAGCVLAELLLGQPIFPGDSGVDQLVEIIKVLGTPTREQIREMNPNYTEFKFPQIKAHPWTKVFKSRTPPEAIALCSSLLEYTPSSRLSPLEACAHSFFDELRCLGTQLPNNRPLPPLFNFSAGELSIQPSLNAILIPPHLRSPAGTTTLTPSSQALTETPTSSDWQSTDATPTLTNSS

Compound | AC50
N#Cc1c(Nc2ccccc2)c(C=NCCN2CCOCC2)c[nH]c1=O | > 30 µM (inactive)
COC(=O)c1sc(NC(=O)COc2ccc(OC)cc2)nc1C | 28.6 µM
COc1ccc(NC(=O)Nc2ccc(F)cc2)c(C)c1 | > 30 µM (inactive)
O=C(Nc1ccccc1F)Nc1ccccc1OC(F)F | > 30 µM (inactive)
COc1cccc(CC(=S)N2CCOCC2)c1 | > 30 µM (inactive)
NC(=O)c1ccsc1NC(=O)C1CC1 | > 30 µM (inactive)
COc1cc(CN2CCCN(C)CC2)c([N+](=O)[O-])cc1OC | > 30 µM (inactive)
CCCCOC(=O)C1=C(C)Nc2ncnn2C1c1ccc(OC)c(OC)c1 (centres undefined) | > 30 µM (inactive)
O=C(CSc1nnc(SCC(=O)c2ccco2)s1)c1ccco1 | > 30 µM (inactive)
C#CCSc1nnc(-c2ccc(O)cc2)o1 | 25.5 µM
CCOC(=O)C1=C(C)NC(C)=C(C(=O)OCC)C1c1sccc1C | > 30 µM (inactive)
CC1CCN(Cc2c(C(=O)N/N=C/c3ccc(C(F)(F)F)cc3)nnn2-c2nonc2N)CC1 | > 30 µM (inactive)
Nc1nc(NCCOCCO)nc(N2CCCCCC2)c1[N+](=O)[O-] | 26.4 µM
COCC(O)CSc1nc(C)[nH]c1[N+](=O)[O-] (centres undefined) | > 30 µM (inactive)
O=C(O)COc1ccc2c(c1)O/C(=C\c1cccs1)C2=O | 26.2 µM
O=C(Cn1c(NCCCO)nc2ccccc21)c1ccc([N+](=O)[O-])cc1 | > 30 µM (inactive)
O=C(CSc1nc2[nH]ncc2c(=O)n1-c1ccccc1)NCc1cccs1 | > 30 µM (inactive)
COc1cc(/C=N/NC(=O)c2ccoc2C)ccc1O | > 30 µM (inactive)
Cc1ccc(S(=O)(=O)Nc2cccc3ncccc23)cc1 | > 30 µM (inactive)
CCOc1cccc(-c2c(C(=O)N/N=C/c3ccco3)nnn2-c2nonc2N)c1 | 10.5 µM
O=C(c1ccco1)c1cn(CC(=O)N2CCCC2)c2ccccc12 | > 30 µM (inactive)
Cc1[nH]nc(NCCO)c1[N+](=O)[O-] | > 30 µM (inactive)
COc1ccc(Cn2nnc(C(=O)Nc3ccc(F)cc3)c2N)cc1 | > 30 µM (inactive)
CCN1CCN(c2c(Cl)cccc2NC(=O)c2cc3ccccc3o2)CC1 | > 30 µM (inactive)
CCOC(=O)c1cc(C)sc1NC(=O)CCC(=O)O | > 30 µM (inactive)

Compound | AC50
CCOc1ccc2[nH]cc(S(=O)(=O)c3ccc(C)cc3)c(=O)c2c1 | > 30 µM (inactive)
O=C(NCCN1CCN(Cc2ccccc2)CC1)Nc1cc(Cl)cc(Cl)c1 | > 30 µM (inactive)
CCOC(=O)c1nc(NCc2cccnc2)c2ccccc2n1 | > 30 µM (inactive)
CCOC(=O)N1CCC(NC(=O)CCc2nc(C3=CCN(C)CC3)no2)CC1 | > 30 µM (inactive)
COCCCNC(=O)C(=O)NC1CCCCC1C (centres undefined) | > 30 µM (inactive)
Oc1cc(O)cc(-c2cc3ccc(O)cc3o2)c1 | > 30 µM (inactive)
CCOC(=O)C1=C(c2ccccc2)Nc2ncnn2C1c1cccc(O)c1 (centres undefined) | 22.9 µM
O=C(Nc1ccccc1-c1nnc(SCc2ccc(Cl)cc2)o1)c1ccccc1 | > 30 µM (inactive)
N#CC(C#N)=C1CCc2ccccc2N1 | > 30 µM (inactive)
NC(=O)Cn1cc(/C=N\NS(=O)(=O)c2cccc([N+](=O)[O-])c2)c2ccccc21 | > 30 µM (inactive)
C=CCSc1ncnc2c1oc1nc3c(cc12)COC(C)(C)C3 | > 30 µM (inactive)
COc1ccc(C(=O)Nc2nncs2)cc1S(=O)(=O)N1CC(c2ccccc2)CC1=O (centres undefined) | > 30 µM (inactive)
O=C(CSc1ccc2nnc(-c3ccccc3)n2n1)N1CCCc2ccccc21 | > 30 µM (inactive)
O=C(CSc1ccccn1)Nc1ccccc1F | > 30 µM (inactive)
COc1cc(CN2CCN(Cc3ccc(C)cc3)CC2)c([N+](=O)[O-])cc1OC | > 30 µM (inactive)
c1cncc(-c2nc(NCC3COc4ccccc4O3)c3ccccc3n2)c1 (centres undefined) | 22.9 µM
O=C(COc1cccc2cccnc12)N/N=C/c1ccccc1O | > 30 µM (inactive)
CCn1c(C)nc2cc(-c3nnc(-c4c(-c5ccccc5)noc4C)o3)ccc21 | > 30 µM (inactive)
CC(=O)Nc1ccc(-c2csc(NCc3ccccc3)n2)cc1 | > 30 µM (inactive)
COc1ccccc1OC(C)C(=O)N1CCC(Cc2ccccc2)CC1 (centres undefined) | > 30 µM (inactive)
Cc1cc(/C=N/Nc2ccc([N+](=O)[O-])cn2)c(C)n1-c1cccc(C(=O)O)c1 | 14.6 µM
CCOC(=O)N1CCC(N2CCN(S(=O)(=O)c3ccc(OC)cc3)CC2)CC1 | > 30 µM (inactive)
COc1ccc(C(=O)c2sc(NC(C)C)nc2N)cc1OC | 0.234 µM
CN1CCN(c2ccc(NC(=O)c3ccc(Br)o3)cc2)CC1 | > 30 µM (inactive)
CC1(C)CC(=O)C(C(c2cccnc2)C2C(=O)CC(C)(C)CC2=O)C(=O)C1 | > 30 µM (inactive)

Compound | AC50
COc1cccc(/C=N/NC(=O)COc2cccc3cccnc23)c1O | > 30 µM (inactive)
O=C(Nc1cccc(F)c1)C1CCCN1S(=O)(=O)c1cccc2cccnc12 (centres undefined) | 11.8 µM
NC(=O)c1sc2nc3c(c(-c4ccco4)c2c1N)CCCC3 | 13.6 µM
Cc1c(C(=O)OC(C)C)[nH]c2c1C(=O)CC(C)(C)C2 | > 30 µM (inactive)
COc1ccc(/C=N/NC(=O)c2nnn(-c3nonc3N)c2CN(C)c2ccccc2)cc1 | > 30 µM (inactive)
Cc1cc(C(C#N)c2ccccc2)n2ncnc2n1 (centres undefined) | 3.35 µM
Cc1c(C(=O)NCCc2ccccc2)oc2ccccc12 | > 30 µM (inactive)
CCSc1ncnc2c1sc1nc3c(cc12)COC(C)(C)C3 | > 30 µM (inactive)
CCOC(=O)c1cnn(C)c1NC(=O)c1ccc(Cl)cc1Cl | > 30 µM (inactive)
O=P(COCCOCP(=O)(c1ccccc1)c1ccccc1)(c1ccccc1)c1ccccc1 | > 30 µM (inactive)
Cn1cnnc1Sc1ccc(CN2CCN(C3CCCC3)C(CCO)C2)o1 (centres undefined) | > 30 µM (inactive)
CC(C)OC(=O)CSc1nc(N)c(C#N)c(-c2ccco2)c1C#N | > 30 µM (inactive)
O=C(CSc1nnc(-c2ccc(O)cc2)o1)Nc1ccccc1 | 16.3 µM
COc1ccc(CNC(=O)CN(CC2CCCO2)C(=O)CNS(=O)(=O)c2ccccc2)cc1 (centres undefined) | > 30 µM (inactive)
O=C(O)Cn1c(=O)c2c3c(sc2n(Cc2ccccc2)c1=O)CCCC3 | > 30 µM (inactive)
COc1ccc(C2C3(C#N)C(N)=NC(OC)(OC)C23C#N)cc1 (centres undefined) | > 30 µM (inactive)
S=C(Nc1cccnc1)Nc1cccc2cnccc12 | > 30 µM (inactive)
COc1ccc(/C=C2\Oc3cc(OCC(=O)N4CCC[C@H]4C(=O)O)ccc3C2=O)c(OC)c1 | > 30 µM (inactive)
C#CCOCCOCCOCCNc1nc(N2CCN(C(=O)[C@H](CCC(=O)O)n3cc([C@@H](N)CCCCN)nn3)CC2)nc(N2CCN(C(=O)[C@H](CCC(=O)O)n3cc([C@@H](N)CCCCN)nn3)CC2)n1 | > 30 µM (inactive)
COc1cc2c(C#N)c(N3CCCCC3)nc(N)c2c(N)n1 | 13.4 µM
CN(C)C(=O)c1ccc(NC(=O)c2cc(-n3cnnc3)ccc2Cl)cc1 | > 30 µM (inactive)
CC(=O)Nc1ccc(Nc2ncnc(N)c2[N+](=O)[O-])cc1 | > 30 µM (inactive)
CCN1CCN(Cc2c(O)ccc3c2O/C(=C\C=C\c2ccccc2OC)C3=O)CC1 | > 30 µM (inactive)
S=C(NCCC1=CCCCC1)Nc1ccccc1 | > 30 µM (inactive)

— PubChem BioAssay AID463203 (Broad Institute, 2010)
